Laboratory results from patent US20260263431A1, “ARYL HYDROCARBON RECEPTOR AGONIST PRODRUGS AND METHODS OF USE THEREOF” (Allianthera (Suzhou) Biopharmaceutical Co., Ltd., priority 2022, published 2026).

Key:
[1] = Caco-2 permeability assay (AB); format: in vitro ADME; details: human, apical to basolateral
Procedure: (§1) Compounds were tested under typical Caco-2 and S9 assay conditions.

S9 stability assay = format: in vitro ADME; details: read-out: mouse S9 Clint
Procedure: as §1

AHR = target: T1, AHR (Homo sapiens, UniProt P35869); assay: AHR activity of the metabolite (reEC50 / abEC50); format: cell-based; details: relative to tapinarof at 1 μM
T1 sequence (P35869 11-848): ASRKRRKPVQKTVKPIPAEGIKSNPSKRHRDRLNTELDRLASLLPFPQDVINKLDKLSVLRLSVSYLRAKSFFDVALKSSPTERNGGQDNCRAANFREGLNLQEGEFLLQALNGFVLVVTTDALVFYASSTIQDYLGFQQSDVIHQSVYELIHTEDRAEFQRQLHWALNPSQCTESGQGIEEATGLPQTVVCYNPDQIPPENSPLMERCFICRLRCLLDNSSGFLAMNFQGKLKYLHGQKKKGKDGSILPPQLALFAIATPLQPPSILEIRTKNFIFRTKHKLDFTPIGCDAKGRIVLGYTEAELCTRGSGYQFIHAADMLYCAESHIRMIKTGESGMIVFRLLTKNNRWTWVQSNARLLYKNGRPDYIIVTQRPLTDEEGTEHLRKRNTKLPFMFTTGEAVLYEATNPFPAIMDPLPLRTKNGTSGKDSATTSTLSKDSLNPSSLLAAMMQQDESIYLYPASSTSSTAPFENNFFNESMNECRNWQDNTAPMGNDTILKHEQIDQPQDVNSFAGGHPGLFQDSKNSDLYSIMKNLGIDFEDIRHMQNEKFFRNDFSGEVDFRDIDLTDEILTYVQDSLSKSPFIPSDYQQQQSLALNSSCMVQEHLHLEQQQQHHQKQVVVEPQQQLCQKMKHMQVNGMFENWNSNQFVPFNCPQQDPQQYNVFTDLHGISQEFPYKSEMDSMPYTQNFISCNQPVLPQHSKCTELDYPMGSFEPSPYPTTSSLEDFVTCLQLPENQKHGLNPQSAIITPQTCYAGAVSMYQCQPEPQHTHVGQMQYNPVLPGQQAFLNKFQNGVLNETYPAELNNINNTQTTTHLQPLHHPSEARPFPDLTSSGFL
Procedure: The AHR activity of the metabolite is measured as AHR reEC50 (as % activation to tapinarof at 1 μM)—of 166.1 nM (69.5%) and a AHR abEC50 of 241.5 nM.

[2] = In vitro anaerobic metabolism in mouse fecal homogenate; format: in vitro ADME; details: 20 μM, anaerobic 37° C.
Procedure: (§2) The ability of the compounds of Formula (I) to release the active compound in the small or large intestine is assessed by introducing representative compounds of the disclosure to the contents of either a rodent small intestine or a rodent large intestine for up to 24 hours at 37° C. The amount of active drug released after the incubation period is determined by LC-MS/MS. Additional studies are conducted by incubating representative compounds of the disclosure with human fecal samples.
(§3) In Vitro Anaerobic Metabolism in Fecal Homogenates (vs. Control)
(§4) Compound 1 was dissolved in PBS (pH 7.4) to provide a 200 μM working solution. An aliquot of 50 μL volume was spiked to each 450 μL fecal homogenate incubation sample to provide an incubation concentration at 20 μM.
(§5) An estimated 1 g to 2 g wet weight of fecal material from healthy mice and rats (separately) was immediately collected in a pre-labelled 50 mL EP tube and stored at ambient room temperature. Based on the weight of each fecal material, a dilution with 0.01 M isotonic phosphate buffer (pH 7.0) is performed to provide a 12.5× diluted fecal homogenate. All fecal materials were stored at room temperature before being used in fecal homogenate preparation.
(§6) Under anaerobic conditions, each of the fecal specimen materials collected in 0.01 M isotonic phosphate buffer (pH 7.0) was homogenized by shaking and mixing with a stirrer. Each lot of the fecal homogenate material was added with an appropriate volume of 0.01 M isotonic phosphate buffer (pH 7.0) to provide fecal homogenate at 12.5× dilution. Under anaerobic condition in a nitrogen glove box purged with high purity nitrogen to ensure <1% oxygen level, the fecal homogenate was transferred to a clean container and diluted with 3 volumes of Brain Heart Infusion Broth (BHI) to provide a 50× diluted fecal homogenate. The diluted fecal homogenate matrix at an aliquot of 0.45 mL was dispensed into 2-mL EP tube, freshly prepared Compound 1 working solutions were then spiked to the fecal homogenate sample vials for incubation over the metabolic stability time-course.
(§7) Compound 1 was incubated at a target concentration of 20 μM in each fecal homogenate over a time course of 0, 1, 2, 4, 6 and 24 hours. Metabolic incubation at each time point was performed in triplicate. Incubation of the samples was performed in 2-mL EP tube. Into each pre-labeled sample vial, 50 μL of a Compound 1 working solution was accurately dispensed followed by the addition of the 0.45 mL pre-incubated fecal homogenate. Sample were capped, vortex mixed and incubated under an anaerobic environment at 37° C. At the end of each incubation time point, 1.0 mL of IS (Internal Standard) as a stop solvent was added to each sample with vortex mixed to stop the metabolic reactions. Samples at the 0-hour time point were pre-treated with the addition of IS stop solvent prior to the spiking of fecal homogenate and Compound 1. All samples were stored at −80° C. prior to LC-MS/MS assay. Samples are analyzed by LC-MS/MS. The MS detection is performed using a Sciex API 5500+ instrument. Each compound is analyzed by reverse phase HPLC.

[3] = In vitro anaerobic metabolism in rat fecal homogenate; format: in vitro ADME; details: 20 μM, anaerobic 37° C.
Procedure: as §2, §3, §4, §5, §6, §7

[4] = Stability in BHI broth (vehicle stability control); format: in vitro ADME; details: 20 μM

| SMILES | Papp A→B [1] | intrinsic clearance in mouse S9 (S9 stability assay) | other results |
| --- | --- | --- | --- |
| CC(C)c1c(OP(=O)(O)O)cc(-c2cnc3ccccc3c2)cc1OP(=O)(O)O [Compound 4, 2-isopropyl-3-(phosphonooxy)-5-(quinolin-3-yl)phenoxyphosphonic acid] | < 0.2 ×10⁻⁶ cm/s | 3.43 µL/min/mg | – |
| CCCc1c(F)cc(/C=C/c2ccccc2)cc1OS(=O)(=O)O [Compound 9, {3-fluoro-5-[(E)-2-phenylethenyl]-2-propylphenyl}oxidanesulfonic acid] | 0.29 ×10⁻⁶ cm/s | 0.7 µL/min/mg | – |
| CC(C)c1ncc(/C=C/c2ccccc2)cc1O [metabolite] | – | – | % activation to tapinarof at 1 μM (AHR): 69.5% |
| CC(C)c1ncc(/C=C/c2ccccc2)cc1OS(=O)(=O)O [Compound 1, {2-isopropyl-5-[(E)-2-phenylethenyl]pyridin-3-yl}oxidanesulfonic acid] | 0.44 ×10⁻⁶ cm/s | 4.91 µL/min/mg | Compound 1 Conc. Average ([2]; 0 hr): 23.7 µM; Compound 1 Conc. Average ([2]; 1 hr): 21.8 µM; Compound 1 Conc. Average ([2]; 2 hr): 21.6 µM; Compound 1 Conc. Average ([2]; 4 hr): 19.2 µM; Compound 1 Conc. Average ([2]; 6 hr): 14.75 µM; Compound 1 Conc. Average ([2]; 24 hr): 0.0738 µM; Compound 1 Conc. Average ([3]; 0 hr): 25.05 µM; Compound 1 Conc. Average ([3]; 1 hr): 21.3 µM; Compound 1 Conc. Average ([3]; 2 hr): 20.55 µM; Compound 1 Conc. Average ([3]; 4 hr): 14.2 µM; Compound 1 Conc. Average ([3]; 6 hr): 3.02 µM; Compound 1 Conc. Average ([3]; 24 hr): 0.0657 µM; Compound 1 Conc. Average ([4]; 0 hr): 23.2 µM; Compound 1 Conc. Average ([4]; 24 hr): 21.9 µM |
| Cc1ccnc2cc(-c3cc(F)c(C(C)C)c(OP(=O)(O)O)c3)ccc12 [Compound 11, 3-fluoro-2-isopropyl-5-(4-methylquinolin-7-yl)phenyl dihydrogen phosphate] | – | 0.68 µL/min/mg | – |
| CC(C)c1ncc(/C=C/c2ccccc2F)cc1OS(=O)(=O)O [Compound 5, {5-[(E)-2-(2-fluorophenyl)ethenyl]-2-isopropylpyridin-3-yl}oxidanesulfonic acid] | 0.44 ×10⁻⁶ cm/s | 2.64 µL/min/mg | – |

More lines, main results first:

| Papp A→B [1] | intrinsic clearance in mouse S9 (S9 stability assay) | SMILES | other results |
| --- | --- | --- | --- |
| 0.25 ×10⁻⁶ cm/s | 0.47 µL/min/mg | CC(C)c1c(F)cc(/C=C/c2ccccc2)cc1OS(=O)(=O)O [Compound 10, {3-fluoro-2-isopropyl-5-[(E)-2-phenylethenyl]phenyl}oxidanesulfonic acid] | – |
| 0.37 ×10⁻⁶ cm/s | – | CC(C)c1c(O)cc(-c2cc(F)c3cnc(N)nc3c2)cc1OS(=O)(=O)O [Compound 7, [5-(2-amino-5-fluoroquinazolin-7-yl)-3-hydroxy-2-isopropylphenyl]oxidanesulfonic acid] | – |
| 0.62 ×10⁻⁶ cm/s | 1.26 µL/min/mg | CC(C)c1ncc(/C=C/c2ccc(F)cc2)cc1OS(=O)(=O)O [Compound 6, {5-[(E)-2-(4-fluorophenyl)ethenyl]-2-isopropylpyridin-3-yl}oxidanesulfonic acid] | – |
| – | 1.18 µL/min/mg | CC(C)c1c(O)cc(-c2cc3ccccc3cn2)cc1OS(=O)(=O)O [Compound 2, [3-hydroxy-2-isopropyl-5-(isoquinolin-3-yl)phenyl]oxidanesulfonic acid] | – |
| 0.29 ×10⁻⁶ cm/s | – | CC(C)c1c(O)cc(-c2cnc3ccccc3c2)cc1OS(=O)(=O)O [Compound 3, [3-hydroxy-2-isopropyl-5-(quinolin-3-yl)phenyl]oxidanesulfonic acid] | – |
| – | 0.02 µL/min/mg | CC(C)c1c(O)cc(-c2ccc3cc(F)ccc3n2)cc1OS(=O)(=O)O [Compound 8, [5-(6-fluoroquinolin-2-yl)-3-hydroxy-2-isopropylphenyl]oxidanesulfonic acid] | – |
